Assay results as given in patent US11484561B2, “Morus extracts rich in N-acids of imino sugars and or pipecolic acids” (Phynova Limited, priority 2011, dated 2022).
Structures can show the parent of a compound that is named as a salt.

Experiments:
Format in all cases: biochemical
[1] = system: β-D-glucosidase (almond); test: Glycosidase assay, β-D-glucosidase (almond)
Experimental: (§1) The assays used p-nitrophenyl-substrates and commercial enzymes purchased from Sigma-Aldrich. Enzymes were assayed at 27° C. in 0.1M citric acid/0.2M disodium hydrogen phosphate buffers at the optimum pH for the enzyme. The incubation mixture consisted of 10 μl enzyme solution, 10 μl of 10 mg/ml aqueous solution of extract and 50 μl of the appropriate 5 mM p-nitrophenyl substrate made up in buffer at the optimum pH for the enzyme. The reactions were stopped by addition of 70 μl 0.4M glycine (pH 10.4) during the exponential phase of the reaction, which had been determined at the beginning using uninhibited assays in which water replaced mulberry fractions. Final absorbances were read at 405 nm using a Versamax microplate reader (Molecular Devices). Assays were carried out in triplicate, and the values given are means of the three replicates per assay. Results are expressed as % inhibition.
(§2) Substrates are 10 mM p-nitrophenyl-glycopyranosides. Enzymes are purchased from Sigma and run at the pH optima

[2] = system: β-D-mannosidase Cellulomonas fimi; test: Glycosidase assay, β-D-mannosidase (Cellulomonas fimi); conditions: % inhibition; for β-D-mannosidase Cellulomonas fimi: Table 6, concentration not given (method: 10 mg/ml solution)
Experimental: as §1

[3] = target: T1, α-D-galactosidase (green coffee bean) (Coffea arabica, UniProt Q42656); test: Glycosidase assay, α-D-galactosidase (green coffee bean); conditions: % inhibition; for α-D-galactosidase coffee bean: Table 6, concentration not given (method: 10 mg/ml solution)
T1 construct: purchased Sigma-Aldrich
Experimental: as §1, §2

[4] = target: T2, β-D-galactosidase (bovine) (Bos taurus, UniProt Q58D55); test: Glycosidase assay, β-D-galactosidase (bovine)
T2 construct: purchased Sigma-Aldrich
T2 sequence (Q58D55 28-653): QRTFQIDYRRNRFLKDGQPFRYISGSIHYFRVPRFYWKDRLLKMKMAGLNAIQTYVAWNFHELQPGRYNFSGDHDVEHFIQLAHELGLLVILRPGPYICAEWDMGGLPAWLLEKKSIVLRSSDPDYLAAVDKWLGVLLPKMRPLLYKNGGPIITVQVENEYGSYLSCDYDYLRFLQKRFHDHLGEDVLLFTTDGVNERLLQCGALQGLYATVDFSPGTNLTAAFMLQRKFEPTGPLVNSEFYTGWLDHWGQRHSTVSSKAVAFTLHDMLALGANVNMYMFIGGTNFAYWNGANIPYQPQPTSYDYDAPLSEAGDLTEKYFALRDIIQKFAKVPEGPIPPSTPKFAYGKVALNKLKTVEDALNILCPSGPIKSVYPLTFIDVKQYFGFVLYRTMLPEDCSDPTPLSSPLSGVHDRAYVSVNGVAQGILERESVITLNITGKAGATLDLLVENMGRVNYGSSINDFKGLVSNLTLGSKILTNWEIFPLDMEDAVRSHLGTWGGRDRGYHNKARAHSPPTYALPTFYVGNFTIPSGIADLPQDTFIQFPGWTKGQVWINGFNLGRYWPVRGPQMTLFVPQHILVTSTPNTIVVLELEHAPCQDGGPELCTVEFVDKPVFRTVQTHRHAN
Experimental: as §1, §2

[5] = target: T3, α-D-glucosidase (Yeast) (Saccharomyces cerevisiae, UniProt P53341); test: Glycosidase assay, α-D-glucosidase (Yeast)
T3 construct: purchased Sigma-Aldrich
Experimental: as §1, §2

[6] = target: T4, amyloglucosidase (A. niger) (Aspergillus niger, UniProt P69328); test: Glycosidase assay, amyloglucosidase (A. niger); conditions: % inhibition; for amyloglucosidase A. niger: Table 6, concentration not given (method: 10 mg/ml solution)
T4 construct: purchased Sigma-Aldrich
Experimental: as §1, §2

[7] = target: T5, α-D-glucosidase (rice) (Oryza sativa subsp. japonica, UniProt Q653V7); test: Glycosidase assay, α-D-glucosidase (rice)
T5 construct: purchased Sigma-Aldrich
Experimental: as §1, §2

[8] = system: N-acetyl-β-D-gluc (Jack bean); test: Glycosidase assay, N-acetyl-β-D-gluc (Jack bean)
Experimental: as §1, §2

[9] = target: T6, β-glucuronidase (bovine liver) (Bos taurus, UniProt A3KMY8); test: Glycosidase assay, β-glucuronidase (bovine liver); conditions: Table 6; % inhibition; concentration not given (method: 10 mg/ml solution)
T6 construct: purchased Sigma-Aldrich; host or cells: bovine liver
T6 sequence (A3KMY8 1-652): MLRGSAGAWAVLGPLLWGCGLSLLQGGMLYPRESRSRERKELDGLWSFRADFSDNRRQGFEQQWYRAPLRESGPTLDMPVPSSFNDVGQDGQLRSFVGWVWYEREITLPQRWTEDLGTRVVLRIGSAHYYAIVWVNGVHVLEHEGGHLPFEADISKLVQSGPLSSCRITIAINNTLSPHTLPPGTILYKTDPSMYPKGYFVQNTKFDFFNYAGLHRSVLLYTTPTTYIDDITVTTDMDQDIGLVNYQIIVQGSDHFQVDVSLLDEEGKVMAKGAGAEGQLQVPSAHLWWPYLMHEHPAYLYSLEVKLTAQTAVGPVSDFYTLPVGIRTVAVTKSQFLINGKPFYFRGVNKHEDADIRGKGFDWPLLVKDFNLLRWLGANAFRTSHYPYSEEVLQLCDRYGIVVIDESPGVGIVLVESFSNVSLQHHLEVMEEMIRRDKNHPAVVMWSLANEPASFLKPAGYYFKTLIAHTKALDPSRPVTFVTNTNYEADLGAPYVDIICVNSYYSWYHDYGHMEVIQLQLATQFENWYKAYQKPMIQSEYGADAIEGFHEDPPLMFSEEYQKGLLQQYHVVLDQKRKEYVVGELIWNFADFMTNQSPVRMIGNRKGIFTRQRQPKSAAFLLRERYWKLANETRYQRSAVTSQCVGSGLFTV
Experimental: as §1, §2

[10] = system: α-D-glucosidase (Bacillus); test: Glycosidase assay, α-D-glucosidase (Bacillus)
Experimental: as §1, §2

[11] = system: glycogen phosphorylase; test: Glycogen phosphorylase assay; conditions: for GP Inhibition (%): at 400 μM; for glycogen phosphorylase inhibition: words, no concentration
[12] = system: N-acetyl-β-D-gluc (Bovine kidney); test: Glycosidase assay, N-acetyl-β-D-gluc (Bovine kidney)
Experimental: as §1, §2

[13] = target: T7, α-D-mannosidase (Jack bean) (Canavalia ensiformis, UniProt C0HJB3); test: Glycosidase assay, α-D-mannosidase (Jack bean); conditions: % inhibition
T7 construct: purchased Sigma-Aldrich
T7 sequence (C0HJB3 1-562 limits assumed): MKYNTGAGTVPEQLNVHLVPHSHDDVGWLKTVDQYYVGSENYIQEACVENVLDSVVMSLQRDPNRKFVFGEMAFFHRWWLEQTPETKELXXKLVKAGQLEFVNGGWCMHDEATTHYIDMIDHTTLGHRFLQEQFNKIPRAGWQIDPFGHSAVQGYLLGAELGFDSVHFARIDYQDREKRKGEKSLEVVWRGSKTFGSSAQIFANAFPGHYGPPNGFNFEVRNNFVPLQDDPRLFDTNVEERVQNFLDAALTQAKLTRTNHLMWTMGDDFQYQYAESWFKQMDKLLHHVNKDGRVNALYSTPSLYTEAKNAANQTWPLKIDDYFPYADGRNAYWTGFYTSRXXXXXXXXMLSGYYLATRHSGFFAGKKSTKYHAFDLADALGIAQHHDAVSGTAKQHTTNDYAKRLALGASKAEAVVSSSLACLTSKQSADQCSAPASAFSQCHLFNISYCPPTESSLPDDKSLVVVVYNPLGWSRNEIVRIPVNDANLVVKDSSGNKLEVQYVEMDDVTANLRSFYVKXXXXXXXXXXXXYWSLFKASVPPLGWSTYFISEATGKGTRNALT
Experimental: as §1, with “The reactions were stopped by addition of 70 μl 0.4M glycine (pH 10.4) during the exponential phase of the reaction, which had been determined at the beginning using uninhibited assays in which water replaced mulberry fractions.” left out
as §2

[14] = system: naringinase (P. decumbens); test: Glycosidase assay, naringinase (P. decumbens); conditions: % inhibition
Experimental: as §1, §2

[15] = target: T8, α-L-fucosidase (bovine) (Bos taurus, UniProt Q2KIM0); test: Glycosidase assay, α-L-fucosidase (bovine); conditions: Table 16; % inhibition; concentration not given
T8 construct: purchased Sigma-Aldrich
T8 sequence (Q2KIM0 23-468): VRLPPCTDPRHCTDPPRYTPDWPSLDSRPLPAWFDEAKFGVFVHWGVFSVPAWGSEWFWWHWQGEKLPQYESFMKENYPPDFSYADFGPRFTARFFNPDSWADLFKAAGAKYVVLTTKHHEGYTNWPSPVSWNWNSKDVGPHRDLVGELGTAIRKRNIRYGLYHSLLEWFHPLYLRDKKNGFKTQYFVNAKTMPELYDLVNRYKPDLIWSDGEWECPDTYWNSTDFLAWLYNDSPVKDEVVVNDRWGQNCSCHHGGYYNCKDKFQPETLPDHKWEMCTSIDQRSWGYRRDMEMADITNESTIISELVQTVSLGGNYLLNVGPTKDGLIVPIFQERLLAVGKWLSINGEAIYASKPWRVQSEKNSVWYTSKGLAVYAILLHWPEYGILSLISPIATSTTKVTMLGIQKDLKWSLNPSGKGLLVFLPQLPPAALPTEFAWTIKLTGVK
Experimental: as §1

[16] = system: β-D-glucosidase (yeast); test: Glycosidase assay, β-D-glucosidase (yeast); conditions: Table 16; % inhibition; concentration not given
Experimental: as §1

[17] = Table 6, % inhibition, concentration not given (method: 10 mg/ml solution)
[18] = Table 6, concentration not given (method: 10 mg/ml solution)
[19] = Table 16, concentration not given
[20] = Table 16, % inhibition, concentration not given
[21] = Table 9, sugar fractions, 10 mM p-nitrophenyl substrate, concentration given only for sucrose (10 mg/ml)

T4 sequence (P69328 25-640): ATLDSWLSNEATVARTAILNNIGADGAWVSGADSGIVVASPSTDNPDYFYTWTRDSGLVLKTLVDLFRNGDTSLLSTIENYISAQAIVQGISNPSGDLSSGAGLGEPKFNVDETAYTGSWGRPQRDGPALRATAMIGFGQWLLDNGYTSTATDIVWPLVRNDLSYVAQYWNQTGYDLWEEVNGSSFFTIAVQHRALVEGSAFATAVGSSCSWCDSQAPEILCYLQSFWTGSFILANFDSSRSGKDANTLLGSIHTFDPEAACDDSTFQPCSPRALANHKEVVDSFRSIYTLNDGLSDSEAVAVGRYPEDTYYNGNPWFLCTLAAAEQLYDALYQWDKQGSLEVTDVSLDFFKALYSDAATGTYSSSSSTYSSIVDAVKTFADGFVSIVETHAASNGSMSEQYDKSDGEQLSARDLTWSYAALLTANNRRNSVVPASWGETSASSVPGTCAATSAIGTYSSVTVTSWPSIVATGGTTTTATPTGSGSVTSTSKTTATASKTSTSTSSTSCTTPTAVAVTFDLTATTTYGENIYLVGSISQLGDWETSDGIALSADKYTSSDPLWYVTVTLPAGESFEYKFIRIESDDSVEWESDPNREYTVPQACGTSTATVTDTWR
T3 sequence (P53341 whole entry): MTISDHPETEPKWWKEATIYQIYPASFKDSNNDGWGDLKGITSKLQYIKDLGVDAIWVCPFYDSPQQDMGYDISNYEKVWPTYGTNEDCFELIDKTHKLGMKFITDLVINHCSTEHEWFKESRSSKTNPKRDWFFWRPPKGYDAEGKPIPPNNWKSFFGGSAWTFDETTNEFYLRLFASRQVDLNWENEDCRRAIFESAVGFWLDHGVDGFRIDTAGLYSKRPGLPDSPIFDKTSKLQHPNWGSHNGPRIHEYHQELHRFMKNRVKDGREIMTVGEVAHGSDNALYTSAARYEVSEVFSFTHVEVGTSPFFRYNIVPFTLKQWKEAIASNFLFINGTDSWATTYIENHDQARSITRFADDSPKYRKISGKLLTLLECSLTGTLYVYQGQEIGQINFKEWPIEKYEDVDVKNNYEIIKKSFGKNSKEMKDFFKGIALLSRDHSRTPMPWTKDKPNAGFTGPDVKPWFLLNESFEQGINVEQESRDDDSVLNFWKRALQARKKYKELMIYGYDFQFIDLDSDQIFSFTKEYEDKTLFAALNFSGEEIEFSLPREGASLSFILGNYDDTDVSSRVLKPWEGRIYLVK
T1 sequence (Q42656 16-378): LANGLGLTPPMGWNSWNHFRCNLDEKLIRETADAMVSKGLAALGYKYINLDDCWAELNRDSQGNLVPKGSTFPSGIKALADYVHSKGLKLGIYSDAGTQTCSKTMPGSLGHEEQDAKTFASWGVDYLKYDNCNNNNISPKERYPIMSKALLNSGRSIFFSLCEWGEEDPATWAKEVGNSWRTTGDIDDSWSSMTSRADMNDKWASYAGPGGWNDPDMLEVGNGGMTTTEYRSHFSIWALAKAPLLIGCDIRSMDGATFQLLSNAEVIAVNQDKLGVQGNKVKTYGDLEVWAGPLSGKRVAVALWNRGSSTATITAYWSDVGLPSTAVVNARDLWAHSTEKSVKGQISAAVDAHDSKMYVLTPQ
T5 sequence (Q653V7 34-885): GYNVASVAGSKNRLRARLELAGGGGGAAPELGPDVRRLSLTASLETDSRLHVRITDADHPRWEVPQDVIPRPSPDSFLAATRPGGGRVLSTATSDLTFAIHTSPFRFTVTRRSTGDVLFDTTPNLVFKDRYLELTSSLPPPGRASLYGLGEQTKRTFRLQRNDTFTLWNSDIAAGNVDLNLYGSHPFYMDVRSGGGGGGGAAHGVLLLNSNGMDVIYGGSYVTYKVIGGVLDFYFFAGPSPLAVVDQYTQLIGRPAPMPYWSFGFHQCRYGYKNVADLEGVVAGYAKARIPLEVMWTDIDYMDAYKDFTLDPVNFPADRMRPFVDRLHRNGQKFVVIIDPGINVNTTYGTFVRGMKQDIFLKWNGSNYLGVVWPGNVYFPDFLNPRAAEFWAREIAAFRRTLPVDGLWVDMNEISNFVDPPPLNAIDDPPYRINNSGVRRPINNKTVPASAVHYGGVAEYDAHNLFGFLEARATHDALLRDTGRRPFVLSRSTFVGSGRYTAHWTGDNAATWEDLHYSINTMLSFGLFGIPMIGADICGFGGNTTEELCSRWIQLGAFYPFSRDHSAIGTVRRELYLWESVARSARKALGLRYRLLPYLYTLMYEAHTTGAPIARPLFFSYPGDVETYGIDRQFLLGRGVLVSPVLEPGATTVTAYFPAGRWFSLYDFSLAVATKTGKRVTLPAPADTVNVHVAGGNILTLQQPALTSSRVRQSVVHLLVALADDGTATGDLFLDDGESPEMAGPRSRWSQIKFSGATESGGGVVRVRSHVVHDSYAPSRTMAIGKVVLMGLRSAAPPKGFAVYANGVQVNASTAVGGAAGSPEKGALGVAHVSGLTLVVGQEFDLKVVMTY

| Structure (SMILES) | β-D-glucosidase almond [1, 17] [%] | β-D-mannosidase Cellulomonas fimi [2] [%] | α-D-galactosidase coffee bean [3] [%] | β-D-galactosidase (Bovine) [4, 17] [%] | α-D-glucosidase (Yeast) [5, 17] [%] | amyloglucosidase A. niger [6] [%] | α-D-glucosidase (Rice) [7, 17] [%] | N-acetyl-β-D-gluc Jack bean [8, 17] [%] | β-glucuronidase bovine liver [9] [%] | α-D-glucosidase (Bacillus) [10, 17] [%] | GP Inhibition (%) [11] [%] | N-acetyl-β-D-gluc (Bovine kidney) [12, 17] [%] | α-D-mannosidase (Jack bean) [13, 18] [%] | Naringinase (P. decumbens) [14, 18] [%] | glycogen phosphorylase inhibition [11] | other results |
| --- | --- | --- | --- | --- | --- | --- | --- | --- | --- | --- | --- | --- | --- | --- | --- | --- |
| C[n+]1cc(C(=O)[O-])ccc1O [6OH trig, 6-hydroxytrigonelline] | 0 | 0 | −16 | 8 | 0 | 0 | 0 | −11 | 0 | −36 | 11.9 | 12 | 0 | 0 | – | – |
| OC[C@H]1NC[C@@H](O)[C@@H]1O [DAB, 1,4-dideoxy-1,4-imino-D-arabinitol] | – | – | – | – | – | – | – | – | – | – | – | – | – | – | – | β-D-mannosidase (C. fimi) [2, 19]: 95%; α-D-galactosidase (Green coffee beans) [3, 19]: 7%; β-D-galactosidase (Bovine) [4, 20]: 100%; α-D-glucosidase (Yeast) [5, 20]: 100%; α-L-fucosidase (Bovine) [15]: 5%; β-D-glucosidase (yeast) [16]: 100%; Amyloglucosidase [6, 19]: 47%; α-D-glucosidase (Rice) [7, 20]: 100%; α-D-glucosidase (Bacillus) [10, 20]: 93%; N-acetyl-β-D-gluc (Bovine kidney) [12, 20]: −8%; α-D-mannosidase (Jack bean) [13, 19]: 3%; Naringinase (P. decumbens) [14, 19]: 3% |
| O=C(O)[C@@H]1CC[C@@H](O)CN1 [compound 900439] | 0 | 0 | −6 | 0 | 0 | 0 | 0 | 8 | 0 | 0 | – | 9 | 0 | −6 | – | – |
| O=C(O)[C@@H]1CC[C@@H](O)CN1 [drawing 7] | – | – | – | – | – | – | – | – | – | – | 0 | – | – | – | – | – |
| OC[C@H]1NCC[C@@H](O)[C@@H]1O [fagomine, Fagomine] | – | – | – | – | – | – | – | – | – | – | – | – | – | – | do not inhibit | – |
| OC[C@H]1O[C@@](CO)(O[C@H]2O[C@H](CO)[C@@H](O)[C@H](O)[C@H]2O)[C@@H](O)[C@@H]1O [sucrose] | – | – | – | – | – | – | – | – | – | – | – | – | – | – | do not inhibit | β-D-glucosidase almond [1, 21]: 0 % inhibition; β-D-galactosidase (Bovine) [4, 21]: 0 % inhibition; α-D-glucosidase (Yeast) [5, 21]: 0 % inhibition; α-D-glucosidase (Rice) [7, 21]: 0 % inhibition; N-acetyl-β-D-gluc Jack bean [8, 21]: 0 % inhibition; α-D-glucosidase (Bacillus) [10, 21]: −7 % inhibition; N-acetyl-β-D-gluc (Bovine kidney) ([12]; Table 9, sucrose 10 mg/ml): 0 % inhibition |
| C[n+]1cccc(C(=O)[O-])c1 [trigonellin HCl, trigonelline] | 0 | 0 | 0 | 0 | 0 | 0 | 0 | 0 | 0 | −12 | 6.9 | −8 | 0 | 0 | not greatly inhibitory | – |
